According to patent US20230086702A1, “SUBSTITUTED 2-AMINO-PYRAZOLYL-[1,2,4]TRIAZOLO[1,5A]PYRIDINE DERIVATIVES AND USE THEREOF” (The Johns Hopkins University, priority 2019, published 2023):

How the values were obtained:
[1] = target: T1, DLK (Homo sapiens, UniProt Q12852); test: DLK biochemical assay (TR-FRET, MKK7 phosphorylation)
T1 construct: 10 nM DLK, catalytic domain, Carna Biosiences; purchased Carna Biosciences ('Carna Biosiences' [sic])
T1 sequence (Q12852 125-366 limits assumed): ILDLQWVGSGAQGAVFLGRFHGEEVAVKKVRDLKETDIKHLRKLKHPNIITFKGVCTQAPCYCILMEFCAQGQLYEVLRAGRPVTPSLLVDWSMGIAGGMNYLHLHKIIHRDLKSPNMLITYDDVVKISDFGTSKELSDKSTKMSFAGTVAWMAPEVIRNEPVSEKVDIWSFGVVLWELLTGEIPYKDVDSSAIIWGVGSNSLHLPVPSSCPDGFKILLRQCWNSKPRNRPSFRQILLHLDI
Method: (§1) DLK assay is a biochemical assay format designed to screen for inhibitors of DLK. Enzymatic activity of DLK is measured by monitoring phosphorylation of the physiological substrate MKK7 (MAP2K7, Dual specificity mitogen-activated protein kinase kinase 7). Phosphorylation is detected by a TR-FRET system whereby His-tagged MKK7 is labeled by a XL665-labeled anti-His antibody (FRET acceptor, emission 665 nm). DLK phosphorylates MKK7 at T275/S277, which is detected by an Eu-labeled anti-phospho-MKK7 (T275/S277) antibody (FRET donor, excitation 340 nm). Phosphorylation of MKK7 results in an increased TR-FRET signal (Ratio XL665-channel/Eu-channel) and inhibition of enzymatic activity of DLK decreases the TR-FRET signal.
Assay Protocol for 1536 MTP format: test compounds are predispensed (60 nl) in test plates; +3 μl DLK solution (10 nM DLK, catalytic domain, Carna Biosiences, 0.6 mM DTT in assay buffer); +2 μl substrate solution (15 nM MKK7, LDB; 60 μM ATP; 0.4 mM DTT in assay buffer); 90 min incubation at RT; +2 μl detection mix (5 nM XL665-labeled anti-His antibody, Cisbio; 0.1 nM Eu-labeled anti-phospho-MKK7 (T275/S277), Cisbio/Millipore in detection buffer); 16 h incubation at 37° C.; endpoint measurement BMG (HTRF).
(§2) Assay Protocol for 384 low volume MTP format: 1 μl of test compounds is pipetted into test plate; +5 μl DLK solution (10 nM DLK, catalytic domain, Carna Biosiences in assay buffer); +5 μl substrate solution (15 nM MKK7, LDB; 60 μM ATP, in assay buffer); 90 min incubation at RT; +9 μl detection mix (20 nM XL665-labeled anti-His antibody, Cisbio; 0.4 nM Eu-labeled anti-phospho-MKK7 (T275/S277), Cisbio/Millipore in detection buffer); 16 h incubation at 4° C.; endpoint measurement BMG (HTRF).
(§3) All indicated concentrations final concentrations.
(§4) Assay buffer (384 format): 50 mM Hepes pH 7.5, 10 mM MgCl2, 1 mM EGTA, 1 mM DTT, 0.01% Triton X-100, 0.01% BSA, 1:500 Smart Block.
(§5) Detection buffer: 25 mM Tris/HCl pH 7.5, 100 mM EDTA, 100 mM NaCl, 200 mM KF, 0.01% Tween 20, 1:500 Smart Block.

[2] = target: T2, LZK (Homo sapiens, UniProt O43283); test: LZK biochemical assay (TR-FRET, MKK7 phosphorylation)
T2 construct: 10 nM LZK, catalytic domain, Carna Biosiences in assay buffer; purchased Carna Biosciences ('Carna Biosiences' [sic])
T2 sequence (O43283 168-409 limits assumed): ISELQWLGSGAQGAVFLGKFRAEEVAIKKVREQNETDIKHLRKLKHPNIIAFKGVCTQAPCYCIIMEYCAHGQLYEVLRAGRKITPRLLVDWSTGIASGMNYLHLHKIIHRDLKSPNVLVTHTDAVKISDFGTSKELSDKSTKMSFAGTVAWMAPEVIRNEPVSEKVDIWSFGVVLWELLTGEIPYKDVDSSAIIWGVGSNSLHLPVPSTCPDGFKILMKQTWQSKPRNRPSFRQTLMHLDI
Method: as §1, with “LZK” for “DLK”, “LZK.” for “DLK.”, “T275/S277” for “T275/S277,”
as §2, with “compound” for “compounds”, “LZK” for “DLK”, “LZK,” for “DLK,”, “15” for “60”, “+5” for “+9”, “32°” for “4°”
as §3, §4, §5

IC50 [1]	IC50 [2]	SMILES
21 nM	24 nM	CCC(c1ccc(C(F)(F)F)nc1)n1cc(-c2cc(-c3ccc(C4CC4)nc3)n3nc(N)nc3c2)cn1 (racemic) [II-55, 5-(6-Cyclopropylpyridin-3-yl)-7-(1-{1-[6-(trifluoromethyl)pyridin-3-yl]propyl}-1H-pyrazol-4-yl)[1,2,4]triazolo[1,5-a]pyridin-2-amine]
22 nM	19 nM	Nc1nc2cc(-c3cnn(C(c4ccc(C(F)(F)F)nc4)C4CCOCC4)c3)cc(-c3ccc(=O)n(C(F)F)c3)n2n1 (single isomer, unassigned) [II-183, 5-[2-Amino-7-(1-{tetrahydro-2H-pyran-4-yl[6-(trifluoromethyl)pyridin-3-yl]methyl}-1H-pyrazol-4-yl)[1,2,4]triazolo[1,5-a]pyridin-5-yl]-1-(difluoromethyl)pyridin-2(1H)-one]
4.5 nM	9.2 nM	CN(C)c1cccc(-c2cc(-c3cnn(C(c4ccc(C(F)(F)F)nc4)C4CCOCC4)c3)cn3nc(N)nc23)c1 (single isomer, unassigned) [II-23, 8-[3-(Dimethylamino)phenyl]-6-(1-{tetrahydro-2H-pyran-4-yl[6-(trifluoromethyl)pyridin-3-yl]methyl}-1H-pyrazol-4-yl)[1,2,4]triazolo[1,5-a]pyridin-2-amine]
1.4 nM	3.5 nM	Nc1nc2c(-c3ccc(=O)n(C(F)F)c3)cc(-c3cnn(C(c4ccc(C(F)(F)F)nc4)C4CCOCC4)c3)cn2n1 (stereo not shown) [II-153]
18 nM	52 nM	CC(C)C(c1ccc(C(F)(F)F)nc1)n1cc(-c2cc(-c3ccc(C(F)(F)F)nc3)c3nc(N)nn3c2)cn1 (single isomer, unassigned) [II-42, 6-(1-{2-Methyl-1-[6-(trifluoromethyl)pyridin-3-yl]propyl}-1H-pyrazol-4-yl)-8-[6-(trifluoromethyl)pyridin-3-yl][1,2,4]triazolo[1,5-a]pyridin-2-amine]
5.9 nM	12 nM	Nc1nc2c(-c3ccc(=O)n(CC(F)F)c3)cc(-c3cnn(C(c4ccc(C(F)(F)F)nc4)C4CCOCC4)c3)cn2n1 (single isomer, unassigned) [II-157, 5-[2-Amino-6-(1-{tetrahydro-2H-pyran-4-yl[6-(trifluoromethyl)pyridin-3-yl]methyl}-1H-pyrazol-4-yl)[1,2,4]triazolo[1,5-a]pyridin-8-yl]-1-(2,2-difluoroethyl)pyridin-2(1H)-one]
7.5 nM	11 nM	CC(C)C(c1ccc(C(F)(F)F)nc1)n1cc(-c2cc(-c3ccc(OC4CC4)nc3)n3nc(N)nc3c2)cn1 (racemic) [II-48, 5-[6-(Cyclopropyloxy)pyridin-3-yl]-7-(1-{2-methyl-1-[6-(trifluoromethyl)pyridin-3-yl]propyl}-1H-pyrazol-4-yl)[1,2,4]triazolo[1,5-a]pyridin-2-amine]
0.7 nM	1.8 nM	CS(=O)(=O)c1cccc(-c2cc(-c3cnn(C(c4ccc(C(F)(F)F)nc4)C4CCOCC4)c3)cn3nc(N)nc23)c1 (racemic) [II-13, 8-[3-(Methylsulfonyl)phenyl]-6-(1-{tetrahydro-2H-pyran-4-yl[6-(trifluoromethyl)pyridin-3-yl]methyl}-1H-pyrazol-4-yl)[1,2,4]triazolo[1,5-a]pyridin-2-amine]
1.1 nM	3.3 nM	Nc1nc2c(-c3ccc(=O)n(CC(F)F)c3)cc(-c3cnn(C(c4ccc(C(F)(F)F)nc4)C4CCOCC4)c3)cn2n1 (stereo not shown) [II-156]
120 nM	670 nM	CCC(c1ccc(C(F)(F)F)cc1)n1cc(-c2cc(-c3cnn(CC(F)(F)F)c3)n3nc(N)nc3c2)cn1 (single isomer, unassigned) [II-130, 5-[1-(2,2,2-Trifluoroethyl)-1H-pyrazol-4-yl]-7-(1-{1-[4-(trifluoromethyl)phenyl]propyl}-1H-pyrazol-4-yl)[1,2,4]triazolo[1,5-a]pyridin-2-amine]
66 nM	16 nM	CCC(c1ccc(C(F)(F)F)nc1)n1cc(-c2cc(-c3ccnc(C4(F)CC4)c3)n3nc(N)nc3c2)cn1 (single isomer, unassigned) [II-32, 5-[2-(1-Fluorocyclopropyl)pyridin-4-yl]-7-(1-{1-[6-(trifluoromethyl)pyridin-3-yl]propyl}-1H-pyrazol-4-yl)[1,2,4]triazolo[1,5-a]pyridin-2-amine]
9.3 nM	41 nM	CCC(c1ccc(C(F)(F)F)nc1)n1cc(-c2cc(-c3ccn(C)c(=O)c3)c3nc(N)nn3c2)cn1 (single isomer, unassigned) [II-171, 4-[2-Amino-6-(1-{1-[6-(trifluoromethyl)pyridin-3-yl]propyl}-1H-pyrazol-4-yl)[1,2,4]triazolo[1,5-a]pyridin-8-yl]-1-methylpyridin-2(1H)-one]
3.4 nM	48 nM	COc1cc(C(C(C)C)n2cc(-c3cc(-c4cnn(CC(F)(F)F)c4)n4nc(N)nc4c3)cn2)ccn1 (stereo not shown) [II-136]
21 nM	22 nM	CC(C)C(c1ccc(C(F)(F)F)nc1)n1cc(-c2cc(-c3ccc(C4CC4)nc3)n3nc(N)nc3c2)cn1 (racemic) [II-58, 5-(6-Cyclopropylpyridin-3-yl)-7-(1-{2-methyl-1-[6-(trifluoromethyl)pyridin-3-yl]propyl}-1H-pyrazol-4-yl)[1,2,4]triazolo[1,5-a]pyridin-2-amine]
1 nM	4.3 nM	Nc1nc2c(-c3ccn(CC(F)F)c(=O)c3)cc(-c3cnn(C(c4ccc(C(F)(F)F)nc4)C4CCOCC4)c3)cn2n1 (single isomer, unassigned) [II-174, 4-[2-Amino-6-(1-{tetrahydro-2H-pyran-4-yl[6-(trifluoromethyl)pyridin-3-yl]methyl}-1H-pyrazol-4-yl)[1,2,4]triazolo[1,5-a]pyridin-8-yl]-1-(2,2-difluoroethyl)pyridin-2(1H)-one]
17 nM	77 nM	Nc1nc2c(-c3cn(CC(F)(F)F)c(=O)cn3)cc(-c3cnn(C(c4ccc(C(F)(F)F)nc4)C4CCOCC4)c3)cn2n1 (single isomer, unassigned) [II-168, 5-[2-Amino-6-(1-{tetrahydro-2H-pyran-4-yl[6-(trifluoromethyl)pyridin-3-yl]methyl}-1H-pyrazol-4-yl)[1,2,4]triazolo[1,5-a]pyridin-8-yl]-1-(2,2,2-trifluoroethyl)pyrazin-2(1H)-one]
7.1 nM	10 nM	CCC(c1ccc(C(F)(F)F)nc1)n1cc(-c2cc(-c3ccc(=O)n(CC(F)(F)F)c3)n3nc(N)nc3c2)cn1 (stereo not shown) [II-188]
